Numbering of substitutions follows the chain as printed. pEC50, pIC50: −log10 of the molar value. Active and inactive are the calls of the source. The calls are words filed in the database; no cut-off is given here.

Experiment [1] has as its target Muscarinic acetylcholine receptor. Put plainly: Compound was evaluated for inhibition of [3H]cis-methyldioxolane binding to label agonist sites (RCMD) in rat neocortex.
The target in experiment [2] is Muscarinic acetylcholine receptors; M1 & M2 (Homo sapiens) (UniProt P11229+P08172). Description: Selectivity ratio for m1 over m2 muscarinic receptors was determined; NA=Not active. Format: protein assay.
The target in experiment [3] is T1, Muscarinic acetylcholine receptor M2 (Homo sapiens, UniProt P08172).
T1 sequence (P08172 whole entry): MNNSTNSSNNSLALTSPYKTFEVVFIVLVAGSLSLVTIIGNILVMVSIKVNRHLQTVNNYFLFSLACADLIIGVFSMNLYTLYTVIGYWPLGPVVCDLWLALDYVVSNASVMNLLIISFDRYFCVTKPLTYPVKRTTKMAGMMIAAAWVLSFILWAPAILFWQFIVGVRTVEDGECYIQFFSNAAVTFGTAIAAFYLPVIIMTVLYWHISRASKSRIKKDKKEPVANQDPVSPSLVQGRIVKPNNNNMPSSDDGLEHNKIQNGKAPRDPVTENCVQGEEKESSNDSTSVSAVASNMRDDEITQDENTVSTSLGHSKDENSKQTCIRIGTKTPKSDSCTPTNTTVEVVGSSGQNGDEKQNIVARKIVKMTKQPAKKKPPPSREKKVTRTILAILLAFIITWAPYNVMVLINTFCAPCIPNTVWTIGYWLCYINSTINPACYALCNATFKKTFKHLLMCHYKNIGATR
Put plainly: Compound was evaluated for inhibitory activity against human Muscarinic acetylcholine receptor M2 using [3H]quinuclidinyl benzilate to label antagonist site (RQNB) in CHO cells; NA: Not active. Format: cell-based.

Experiment [4] deals with T2, Muscarinic receptor M1 and M2 (Rattus norvegicus, UniProt P08482+P10980).
T2 sequence (P08482 whole entry): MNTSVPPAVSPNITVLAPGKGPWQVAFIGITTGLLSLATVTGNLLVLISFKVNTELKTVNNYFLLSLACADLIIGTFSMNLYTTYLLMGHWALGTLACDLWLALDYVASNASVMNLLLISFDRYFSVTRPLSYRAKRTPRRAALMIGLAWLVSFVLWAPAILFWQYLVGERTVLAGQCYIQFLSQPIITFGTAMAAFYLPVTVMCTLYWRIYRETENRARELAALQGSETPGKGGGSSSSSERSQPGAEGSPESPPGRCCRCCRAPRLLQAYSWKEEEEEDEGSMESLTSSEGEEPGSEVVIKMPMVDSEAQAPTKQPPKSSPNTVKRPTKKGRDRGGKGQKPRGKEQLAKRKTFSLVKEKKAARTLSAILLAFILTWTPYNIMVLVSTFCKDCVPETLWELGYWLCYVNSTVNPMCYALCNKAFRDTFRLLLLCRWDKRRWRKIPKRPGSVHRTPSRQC
T2 sequence (P10980 whole entry): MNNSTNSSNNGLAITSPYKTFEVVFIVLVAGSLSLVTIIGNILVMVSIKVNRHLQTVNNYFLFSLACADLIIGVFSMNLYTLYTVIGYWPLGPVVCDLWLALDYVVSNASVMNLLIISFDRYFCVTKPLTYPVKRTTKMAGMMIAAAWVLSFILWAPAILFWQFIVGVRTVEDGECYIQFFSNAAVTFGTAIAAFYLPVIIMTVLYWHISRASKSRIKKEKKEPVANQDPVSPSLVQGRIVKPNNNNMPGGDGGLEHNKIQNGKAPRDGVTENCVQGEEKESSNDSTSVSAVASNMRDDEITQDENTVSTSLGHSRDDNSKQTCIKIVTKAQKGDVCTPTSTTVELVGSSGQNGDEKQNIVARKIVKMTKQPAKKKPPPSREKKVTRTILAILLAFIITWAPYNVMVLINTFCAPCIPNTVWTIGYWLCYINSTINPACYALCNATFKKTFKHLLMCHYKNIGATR
Description: Compound was evaluated for its inhibition of [3H]quinuclidinyl benzilate binding to label antagonist site (RQNB) in rat neocortex.

The target of experiment [5] is T3, Muscarinic acetylcholine receptor M1 (Homo sapiens, UniProt P11229).
T3 sequence (P11229 whole entry): T2 sequence (P08482 whole entry) with V5A, S254T, S309P, K320R, G337A, V413I
Description: Compound was evaluated for its inhibitory activity against human Muscarinic acetylcholine receptor M1 using [3H]quinuclidinyl benzilate to label antagonist site (RQNB) in CHO cells; NA=Not active. Format: cell-based.

Experiment [6] concerns the target T4, Muscarinic acetylcholine receptor M3 (Homo sapiens, UniProt P20309). Description: Evaluated for its MIPA (muscarinic-stimulated inositol phosphate accumulation) activity measured in SK-N-SH neuroblastoma cells expressing human muscarinic m3 receptor, compound run at 100 uM;100 uM of carbachol was used. Format: functional, cell-based.
Target sequence in this assay (P20309 whole entry, looked up): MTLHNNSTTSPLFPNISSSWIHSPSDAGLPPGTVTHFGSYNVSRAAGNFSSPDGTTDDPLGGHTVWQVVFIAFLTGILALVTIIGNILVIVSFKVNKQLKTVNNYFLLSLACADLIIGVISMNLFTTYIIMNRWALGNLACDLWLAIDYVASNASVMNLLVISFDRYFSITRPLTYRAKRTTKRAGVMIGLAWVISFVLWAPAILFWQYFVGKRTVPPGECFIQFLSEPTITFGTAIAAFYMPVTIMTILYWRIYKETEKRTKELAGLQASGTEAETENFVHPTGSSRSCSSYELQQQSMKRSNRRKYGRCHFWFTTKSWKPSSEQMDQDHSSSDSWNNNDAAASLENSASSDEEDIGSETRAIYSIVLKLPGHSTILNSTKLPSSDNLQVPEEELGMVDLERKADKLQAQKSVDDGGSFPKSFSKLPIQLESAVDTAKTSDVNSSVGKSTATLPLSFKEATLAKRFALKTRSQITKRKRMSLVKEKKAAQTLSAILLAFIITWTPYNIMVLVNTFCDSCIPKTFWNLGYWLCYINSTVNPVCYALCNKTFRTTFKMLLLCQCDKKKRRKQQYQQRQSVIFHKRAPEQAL
Experiment [7] addresses T4, Muscarinic acetylcholine receptor M3. Format: functional, cell-based, SK-N-SH.
Target sequence in this assay (P20309 whole entry): as the sequence (P20309 whole entry, looked up) above
Description: Effective concentration for MIPA (muscarinic-stimulated inositol phosphate accumulation) activity in SK-N-SH neuroblastoma cells expressing human muscarinic M3 receptor
The target in experiment [8] is T3, Muscarinic acetylcholine receptor M1. Format: functional, cell-based, CHO.
Description: Effective concentration for HMPA (human muscarinic inositol phosphate accumulation) activity measured in CHO cells expressing Muscarinic acetylcholine receptor M1
Experiment [9] deals with T1, Muscarinic acetylcholine receptor M2. Description: Inhibitory activity against human Muscarinic acetylcholine receptor M2 using [3H]quinuclidinyl benzilate to label antagonist site (RQNB) in CHO cells. Format: cell-based.
The target in experiment [10] is T5, Muscarinic acetylcholine receptor M1 (Homo sapiens) (UniProt P11229).
T5 sequence (whole entry): T2 sequence (P08482 whole entry) with V5A, S254T, S309P, K320R, G337A, V413I
The following applies: CHO; at 100 µM.
Description: Evaluated for its HMPA (human muscarinic inositol phosphate accumulation) activity measured in CHO cells expressing Muscarinic acetylcholine receptor M1 compound run at 100 uM

For experiment [11], the target named is T3, Muscarinic acetylcholine receptor M1. Format: functional, cell-based, CHO. This is another data set of the same source.
Description: Inhibitory activity against human Muscarinic acetylcholine receptor M1 using [3H]quinuclidinyl benzilate to label antagonist site (RQNB) in CHO cells
Experiment [12] deals with T4, Muscarinic acetylcholine receptor M3. Description: Evaluated for its MIPA (muscarinic-stimulated inositol phosphate accumulation) activity measured in SK-N-SH neuroblastoma cells expressing human m3 receptor, compound run at 100 uM;100 uM of carbachol was used. Format: functional, cell-based.
Target sequence in this assay (P20309 whole entry, looked up): as above
Experiment [13] addresses T1, Muscarinic acetylcholine receptor M2. Description: Compound was evaluated for inhibitory activity against human Muscarinic acetylcholine receptor M2 using [3H]quinuclidinyl benzilate to label antagonist site (RQNB) in CHO cells; Not active. Format: cell-based.
Experiment [14] deals with T3, Muscarinic acetylcholine receptor M1. Put plainly: Compound was evaluated for its inhibitory activity against human Muscarinic acetylcholine receptor M1 using [3H]quinuclidinyl benzilate to label antagonist site (RQNB) in CHO cells; Not active. Format: cell-based.

Muscarinic acetylcholine receptors; M1 & M2 (Homo sapiens), sequence (P11229 whole entry, looked up, one chain of several): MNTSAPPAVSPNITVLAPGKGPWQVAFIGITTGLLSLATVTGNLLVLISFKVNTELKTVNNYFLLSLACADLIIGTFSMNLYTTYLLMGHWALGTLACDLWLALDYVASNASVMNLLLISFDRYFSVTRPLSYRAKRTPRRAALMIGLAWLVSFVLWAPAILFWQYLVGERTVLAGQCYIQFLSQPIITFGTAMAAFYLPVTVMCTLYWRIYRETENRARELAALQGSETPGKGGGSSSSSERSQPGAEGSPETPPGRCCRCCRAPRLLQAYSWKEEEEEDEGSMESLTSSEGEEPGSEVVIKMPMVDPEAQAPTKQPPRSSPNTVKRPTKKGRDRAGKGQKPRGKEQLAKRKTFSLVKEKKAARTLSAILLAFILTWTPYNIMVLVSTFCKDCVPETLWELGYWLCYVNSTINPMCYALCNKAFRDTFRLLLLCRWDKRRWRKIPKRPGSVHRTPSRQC

For orientation: IC50 means the concentration that gives 50% inhibition. Lower therefore signals higher potency. For `C#CCCCO/N=C1\CN2CCC1C2` (centres undefined), the concentration for half-maximal inhibition (IC50) was 111 nM in experiment [1], “Not Active” in experiment [3], 3.655 µM in [4] and “Not Active” in experiment [5]. Moreover, in experiment [2], the Ratio entry was “inactive”.
Usually pEC50 stands for the negative decadic logarithm of the EC50, by convention in mol/L. A higher pEC50 goes with a small EC50. What is called pIC50 is the IC50 on a negative log10 scale, so that one unit is a factor of ten. Read a low pIC50 as a high IC50. As to `C#CCO/N=C1\CN2CCC1C2` (centres undefined), the figures for the CCh in experiment [6] and in [10] were 51% and 104%, respectively. The negative logarithm of the EC50 (pEC50) in experiment [7] was 5.08; in [8], 6.05. Besides, the negative-log IC50 (pIC50) in experiment [9] is 5.98; in experiment [11], 5.02. In addition, the 50% inhibitory concentration (IC50) in experiment [4] stood at 4.359 µM.
For `CCO/N=C1\CN2CCC1C2` (centres undefined), the IC50 in experiment [1] was determined as 12.5 nM; in [4] it was 3.112 µM. The CCh in experiment [6] turned out to be 19%. Also, the pEC50 in experiment [7] was 5.05.
`C(#Cc1ccccc1)CO/N=C1\CN2CCC1C2` (centres undefined): the CCh in experiment [6] worked out at 11%; in experiment [10], 76%. The compound further showed a pEC50 in [8] of 5.48. In addition, the pIC50 in experiment [9] was 4.59; in experiment [11] it was 5.27. This compound also gave an IC50 in experiment [4] of 5.012 µM.
Regarding `CC#CCC#CCO/N=C1\CN2CCC1C2` (centres undefined), the IC50 in experiment [1] was found to be 39 nM; in [4], 2.914 µM. The CCh worked out at 2% in [6] and 81% in experiment [10]. The same compound showed a pEC50 in [8] of 5.30. For the same compound, the pIC50 in [9] was 5.29; in experiment [11] it was 5.25.
Turning to `CC(C)(C)O/N=C1\CN2CCC1C2` (centres undefined), the IC50 in experiment [1] is 91 nM; in experiment [4], 3.54 µM. Also, the pIC50 in experiment [9] was 5.35; in experiment [11] it was 5.42.
On the same counts, the results for `COCC#CCO/N=C1\CN2CCC1C2` (centres undefined) are 55 nM, 35.434 µM, 4.23 and 4.37.
As for `C#CC(C)O/N=C1\CN2CCC1C2` (centres undefined), the IC50 came out at 35 nM in [1] and 3.984 µM in experiment [4]. The pIC50 in [9] was 5.28; in experiment [11], 5.43.
On the same counts, the results for `C#CCCO/N=C1\CN2CCC1C2` (centres undefined) are 83 nM, 9.806 µM, 4.81 and 4.84.
On the same counts, the results for `C=CCC#CCO/N=C1\CN2CCC1C2` (centres undefined) are 32 nM, 7.313 µM, 4.80 and 5.03.
Consider `CO/N=C1\CN2CCC1C2` (centres undefined), for which the CCh in experiment [6] was 53%. The same compound had a pEC50 in experiment [7] of 4.84. In addition, the pIC50 in [9] was 5.10; in experiment [11], 4.07. For the same compound, the half-inhibitory concentration (IC50) in experiment [4] amounted to 24.558 µM.
Turning to `C[N+](C)(C)CC#CCOC(=O)Nc1cccc(Cl)c1.[Cl-]`, the 50% inhibitory concentration (IC50) was determined as 25 nM in experiment [1] and 5.304 µM in experiment [4]. The compound further showed a pEC50 in experiment [8] of 5.46. Moreover, the CCh in experiment [12] turned out to be 3%; in [10], 57%. For the same compound, the negative logarithm of the IC50 (pIC50) in experiment [9] is 4.89; in [11], 5.40.
Turning to `CCCCC#CCO/N=C1\CN2CCC1C2` (centres undefined), the figures for the IC50 in experiment [1] and in experiment [4] were 44 nM and 6.045 µM, respectively. Also, the results for the negative-log IC50 (pIC50) in [9] and in experiment [11] were 5.02 and 5.10, respectively.
On to `CC#CCO/N=C1\CN2CCC1C2` (centres undefined), for which the IC50 in experiment [1] was 4 nM; in experiment [4] it was 4.214 µM. Besides, the pEC50 in experiment [7] was 5.06; in experiment [8], 5.72. Moreover, the CCh was 49% in [12] and 63% in experiment [10]. For the same compound, the results for the pIC50 in experiment [9] and in experiment [11] were 5.77 and 5.24, respectively.
Take `C1CC(O/N=C2\CN3CCC2C3)C1` (centres undefined): the results for the IC50 in experiment [1] and in experiment [4] were 88 nM and 1.156 µM, respectively. Besides, the results for the negative logarithm of the IC50 (pIC50) in [9] and in experiment [11] were 5.79 and 5.95, respectively.
Take `CC(C)O/N=C1\CN2CCC1C2` (centres undefined): the half-inhibitory concentration (IC50) in experiment [1] was determined as 46 nM; in [4] it was 2.03 µM. For the same compound, the pIC50 is 5.50 in experiment [9] and 5.58 in experiment [11].
Turning to `C#CCC#CCO/N=C1\CN2CCC1C2` (centres undefined), the CCh in experiment [6] stood at 14%; in experiment [10], 79%. Further, the figures for the pEC50 in [7] and in experiment [8] were 4.79 and 5.33, respectively. The pIC50 was 5.55 in experiment [9] and 5.00 in [11]. The compound further gave a half-inhibitory concentration (IC50) in experiment [4] of 8.834 µM.
For the compound `Nc1noc(C2CN3CCC2C3)n1` (centres undefined) [OXADIAZOLE], the half-inhibitory concentration (IC50) in experiment [1] came to 0.3 nM; in experiment [4], 0.088 µM. For the same compound, the CCh in [6] was 0.269%; in [10] it was 293%. Moreover, the values for the pEC50 in experiment [7] and in experiment [8] were 3.98 and 4.00, respectively. Further, the negative-log IC50 (pIC50) in experiment [9] is 7.70; in experiment [11], 6.40.
As to `CCCO/N=C1\CN2CCC1C2` (centres undefined), the values for the IC50 in [1] and in experiment [4] were 120 nM and 0.032 µM, respectively. Also, the figures for the CCh in [6] and in [10] were 3% and 44%, respectively. In experiment [8], this compound had a pEC50 of 4.57. In addition, the pIC50 is 5.40 in experiment [9] and 5.43 in [11].
For the compound `CCC#CCO/N=C1\CN2CCC1C2` (centres undefined), the IC50 in experiment [1] is 3.6 nM; in experiment [4], 5.976 µM. Moreover, the CCh in experiment [6] turned out to be 56%; in [10], 72%. Besides, the values for the pEC50 in [7] and in experiment [8] were 5.02 and 5.23, respectively. Besides, the pIC50 is 5.07 in [9] and 5.31 in experiment [11].
With `C#C/C=C/CO/N=C1\CN2CCC1C2` (centres undefined), the negative-log IC50 (pIC50) in [9] was 4.52; in [11], 4.90. In addition, the IC50 in experiment [4] is 13.85 µM.
On to `C#CCC#CCC#CCO/N=C1\CN2CCC1C2` (centres undefined), for which the CCh in [6] turned out to be 0%; in [10], 50%. Besides, in [8], the negative logarithm of the EC50 (pEC50) was 5.29. In addition, the pIC50 was 5.66 in experiment [9] and 5.69 in experiment [11]. Further, in experiment [4], the IC50 stood at 0.958 µM.
In the case of `O/N=C1\CN2CCC1C2` (centres undefined), the IC50 in experiment [1] was greater than 100 nM; in experiment [13] it was “Not Active”; in experiment [4], greater than 1 µM; in experiment [14] it was “Not Active”.

For the origin of these results see ChEMBL document CHEMBL1150001, “A rationale for the design and synthesis of m1 selective muscarinic agonists” (Bioorg Med Chem Lett, 1992).
